According to EP4653437A2 (Innovo Therapeutics Inc., priority 2023, dated 2024):
pIC50: −log10 of the molar value.

Columns and labels:
A549 cells = test: Measurement of PGE2-increasing activity in A549 cells (IL-1β stimulated, PGE2 quantified in supernatant); format: cell-based; details: Homo sapiens, 24 h; concentration of 1 µM of each compound; IL-1β treated A549 cells; read-out: Increased PGE2 production in A549 cells
Procedure, shortened: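 PGE2 secreted into the supernatant was measured by immunoassay 24 h after treatment. Before treatment, A549 cells were cultured 24 h in 10% FBS F12K, washed, and placed in serum-free medium containing compound (DMSO 0.1% final) plus or minus IL-1β, incubated at 37 °C, 5% CO2.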

human 15-PGDH = target: T1, human 15-PGDH (Homo sapiens, UniProt P15428); test: Evaluation of 15-PGDH inhibitory activity (fluorescence enzyme assay, NAD+/PGE2); format: biochemical; details: human 15-PGDH enzyme, fluorescence Vmax
T1 construct: purchased R&D System 5660-DH
T1 sequence (P15428 1-266): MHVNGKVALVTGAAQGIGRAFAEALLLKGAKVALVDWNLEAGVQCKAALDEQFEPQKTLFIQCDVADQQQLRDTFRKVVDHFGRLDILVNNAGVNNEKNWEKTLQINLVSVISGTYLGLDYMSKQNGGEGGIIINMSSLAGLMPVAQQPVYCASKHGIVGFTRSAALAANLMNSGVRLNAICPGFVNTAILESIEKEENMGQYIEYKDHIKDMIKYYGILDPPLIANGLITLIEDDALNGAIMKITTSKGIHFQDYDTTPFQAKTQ
Method: 15-PGDH inhibition activity of Example compounds was measured as follows. 6.7 ng of human 15-PGDH (R&D System# 5660-DH) enzyme (10 µL) was added to a black 96 well plate, 60 µL of buffer (50 mM Tris-HCl, pH 7.5, 0.01% Tween 20) was added, and 10 µL of 200 µM β-Nicotinamide adenine dinucleotide sodium salt (Sigma, Cat# N0632-5G) was added. 10 µL of (10x) compound solution in DMSO was added and reacted for 10 minutes at room temperature.

Row | SMILES | fold induction at 1 µM (A549 cells) | pIC50 (human 15-PGDH)
1 | O=C(c1ccc(-c2cccc3c(C(=O)N4CCCCC4)cnn23)cn1)N1CCNCC1 [Example 82, piperazin-1-yl(5-(3-(piperidine-1-carbonyl)pyrazolo[1,5-a]pyridin-7-yl)pyridin-2-yl)methanone] | < 1.5 | ≥ 7.00
2 | CN1Cc2ccc(-c3cccc4c(C(=O)N5CCC(F)CC5)cnn34)cc2C1=O [Example 231, 6-(3-(4-fluoropiperidine-1-carbonyl)pyrazolo[1,5-a]pyridin-7-yl)-2-methylisoindolin-1-one] | > 1.5 | ≥ 7.00
3 | N#Cc1ncc(-c2cccc3c(C(=O)N4CCCCC4)cnn23)cn1 [Example 293, 5-[3-(piperidine-1-carbonyl)pyrazolo[1,5-a]pyridin-7-yl]pyrimidine-2-carbonitrile] | > 1.5 | ≥ 7.00
4 | N#Cc1ccc(-c2cccc3c(C(=O)N4CCCCC4)cnn23)cc1F [Example 22, 2-fluoro-4-(3-(piperidine-1-carbonyl)pyrazolo[1,5-a]pyridin-7-yl)benzonitrile] | > 1.5 | ≥ 7.00
5 | O=C(c1ncc(-c2cccc3c(C(=O)N4CCCCC4)cnn23)cn1)N1CCC1 [Example 277, [7-[2-(azetidine-1-carbonyl)pyrimidin-5-yl]pyrazolo[1,5-a]pyridin-3-yl]-(1-piperidyl)methanone] | > 1.5 | ≥ 7.00
6 | COCCNC(=O)c1ccc(-c2cccc3c(C(=O)N4CCCCC4)cnn23)cn1 [Example 78, N-(2-methoxyethyl)-5-(3-(piperidine-1-carbonyl)pyrazolo[1,5-a]pyridin-7-yl)picolinamide] | > 1.5 | ≥ 7.00
7 | O=C(Nc1cccc(-c2cccc3c(C(=O)N4CCCCC4)cnn23)c1)C1CCCCC1 [Example 96, N-(3-(3-(piperidine-1-carbonyl)pyrazolo[1,5-a]pyridin-7-yl)phenyl)cyclohexanecarboxamide] | < 1.5 | ≥ 7.00
8 | O=C(c1cnn2c(-c3cncc(F)c3)cccc12)N1CCCCC1 [Example 284, (7-(5-fluoropyridin-3-yl)pyrazolo[1,5-a]pyridin-3-yl)(piperidin-1-yl)methanone] | > 1.5 | ≥ 7.00
9 | CNC(=O)c1ncc(-c2cccc3c(C(=O)N4CCCCC4)cnn23)cc1Cl [Example 262, 3-chloro-N-methyl-5-[3-(piperidine-1-carbonyl)pyrazolo[1,5-a]pyridin-7-yl]pyridine-2-carboxamide] | > 1.5 | ≥ 7.00
10 | O=C(c1cnn2c(-c3cc(Cl)nc(Cl)c3)cccc12)N1CCCCC1 [Example 282, (7-(2,6-dichloropyridin-4-yl)pyrazolo[1,5-a]pyridin-3-yl)(piperidin-1-yl)methanone] | < 1.5 | ≥ 7.00
11 | Cc1noc(C)c1-c1ccc(-c2cccc3c(C(=O)N4CCCCC4)cnn23)cc1 [Example 324, [7-[4-(3,5-dimethylisoxazol-4-yl)phenyl]pyrazolo[1,5-a]pyridin-3-yl]-(1-piperidyl)methanone] | > 1.5 | ≥ 7.00
12 | Nc1cnn(-c2ccc(-c3cccc4c(C(=O)N5CCCCC5)cnn34)cn2)c1 [Example 344, (7-(6-(4-amino-1H-pyrazol-1-yl)pyridin-3-yl)pyrazolo[1,5-a]pyridin-3-yl)(piperidin-1-yl)methanone] | > 1.5 | ≥ 7.00
13 | O=C1NCc2ncc(-c3cccc4c(C(=O)N5CCCCC5)cnn34)cc21 [Example 232, 3-(3-(piperidine-1-carbonyl)pyrazolo[1,5-a]pyridin-7-yl)-6,7-dihydro-5H-pyrrolo[3,4-b]pyridin-5-one] | > 1.5 | ≥ 7.00
14 | COCCC(=O)Nc1ccc(-c2cccc3c(C(=O)N4CCCCC4)cnn23)cc1 [Example 98, 3-methoxy-N-(4-(3-(piperidine-1-carbonyl)pyrazolo[1,5-a]pyridin-7-yl)phenyl)propanamide] | > 1.5 | ≥ 7.00
15 | O=C(c1cncc(-c2cccc3c(C(=O)N4CCCCC4)cnn23)c1)N1CCC1 [Example 41, azetidin-1-yl(5-(3-(piperidine-1-carbonyl)pyrazolo[1,5-a]pyridin-7-yl)pyridin-3-yl)methanone] | > 1.5 | ≥ 7.00
16 | O=C(c1ccc(-c2cccc3c(C(=O)N4CCCCC4)cnn23)cn1)N1CC2(CCC2)C1 [Example 214, 2-azaspiro[3.3]heptan-2-yl-[5-[3-(piperidine-1-carbonyl)pyrazolo[1,5-a]pyridin-7-yl]-2-pyridyl]methanone] | > 1.5 | ≥ 7.00

Row | SMILES | fold induction at 1 µM (A549 cells) | pIC50 (human 15-PGDH)
17 | O=C(c1ncc(-c2cccc3c(C(=O)N4CCCCC4)cnn23)cc1F)N1CCC1 [Example 248, [7-[6-(azetidine-1-carbonyl)-5-fluoro-3-pyridyl]pyrazolo[1,5-a]pyridin-3-yl]-(1-piperidyl)methanone] | > 1.5 | ≥ 7.00
18 | COCCC(=O)Nc1cncc(-c2cccc3c(C(=O)N4CCCCC4)cnn23)c1 [Example 197] | > 1.5 | ≥ 7.00
19 | N#Cc1ccc(Nc2cccc3c(C(=O)N4CCCCC4)cnn23)cc1 [Example 146, 4-((3-(piperidine-1-carbonyl)pyrazolo[1,5-a]pyridin-7-yl)amino)benzonitrile] | > 1.5 | ≥ 7.00
20 | O=C(c1cnn2c(-c3ccc(F)nc3)cccc12)N1CCCC(C(F)(F)F)C1 (centres unmarked) [Example 338, (7-(6-fluoropyridin-3-yl)pyrazolo[1,5-a]pyridin-3-yl)(3-(trifluoromethyl)piperidin-1-yl)methanone] | > 1.5 | ≥ 7.00
21 | Cn1cnc(Nc2cccc3c(C(=O)N4CCCCC4)cnn23)cc1=O [Example 236, 3-methyl-6-[[3-(piperidine-1-carbonyl)pyrazolo[1,5-a]pyridin-7-yl]amino]pyrimidin-4-one] | > 1.5 | ≥ 7.00
22 | CC(C)NC(=O)c1ccc(-c2cccc3c(C(=O)N4CCCCC4)cnn23)cn1 [Example 76, N-isopropyl-5-(3-(piperidine-1-carbonyl)pyrazolo[1,5-a]pyridin-7-yl)picolinamide] | > 1.5 | ≥ 7.00
23 | O=C(c1cnn2c(-c3ccc(N4CC5CCC4CC5)nc3)cccc12)N1CCCCC1 [Example 216, (7-(6-(2-azabicyclo[2.2.2]octan-2-yl)pyridin-3-yl)pyrazolo[1,5-a]pyridin-3-yl)(piperidin-1-yl)methanone] | > 1.5 | ≥ 7.00
24 | Cc1noc(C)c1-c1cc(-c2cccc3c(C(=O)N4CCCCC4)cnn23)cc(N2CCOCC2)n1 [Example 371, (7-(2-(3,5-dimethylisoxazol-4-yl)-6-morpholinopyridin-4-yl)pyrazolo[1,5-a]pyridin-3-yl)(piperidin-1-yl)methanone] | > 1.5 | ≥ 7.00
25 | CN1CCN(C(=O)c2ccc(-c3cccc4c(C(=O)N5CCCCC5)cnn34)cc2)CC1 [Example 67, (4-methylpiperazin-1-yl)(4-(3-(piperidine-1-carbonyl)pyrazolo[1,5-a]pyridin-7-yl)phenyl)methanone] | > 1.5 | ≥ 7.00
26 | COc1noc2ccc(-c3cccc4c(C(=O)N5CCCCC5)cnn34)cc12 [Example 269, (7-(3-methoxybenzo[d]isoxazol-5-yl)pyrazolo[1,5-a]pyridin-3-yl)(piperidin-1-yl)methanone] | > 1.5 | ≥ 7.00
27 | O=C(c1cnn2c(-c3cnc(F)c(F)c3)cccc12)N1CCCCC1 [Example 288, (7-(5,6-difluoropyridin-3-yl)pyrazolo[1,5-a]pyridin-3-yl)(piperidin-1-yl)methanone] | > 1.5 | ≥ 7.00
28 | O=C(c1cnn2c(-c3cc(-c4ncon4)cc([N+](=O)[O-])c3)cccc12)N1CCCCC1 [Example 342, (7-(3-nitro-5-(1,2,4-oxadiazol-3-yl)phenyl)pyrazolo[1,5-a]pyridin-3-yl)(piperidin-1-yl)methanone] | > 1.5 | ≥ 7.00
29 | CN(C)C1CN(c2ccc(-c3cccc4c(C(=O)N5CCCCC5)cnn34)cn2)C1 [Example 218, (7-(6-(3-(dimethylamino)azetidin-1-yl)pyridin-3-yl)pyrazolo[1,5-a]pyridin-3-yl)(piperidin-1-yl)methanone] | > 1.5 | ≥ 7.00
30 | Cn1cnc(-c2cccc3c(C(=O)N4CCCCC4)cnn23)cc1=O [Example 207, 3-methyl-6-(3-(piperidine-1-carbonyl)pyrazolo[1,5-a]pyridin-7-yl)pyrimidin-4(3H)-one] | < 1.5 | ≥ 7.00
31 | O=C(c1ccc(-c2cccc3c(C(=O)N4CCCCC4)cnn23)cn1)N1CC(F)(F)C1 [Example 237, (3,3-difluoroazetidin-1-yl)-[5-[3-(piperidine-1-carbonyl)pyrazolo[1,5-a]pyridin-7-yl]-2-pyridyl]methanone] | > 1.5 | ≥ 7.00
